Measurements reported in US6833456B2, “Indolyl-urea derivatives of thienopyridines useful as antiangiogenic agents, and methods for their use” (Agouron Pharmaceuticals, Inc., priority 2002, dated 2004).
Where “and” joins values, the source holds several entries; their conditions need not be identical. Identical values can stand only once.

Experiments:
Mouse PK assay = assay type: in vivo, B6 female mice; conditions: po; for AUC / Cmax: female, B6, mouse, plasma, 50 mg/kg; for Cmax: p.o., read-out: Mouse Cmax, po ng-h/mL
Outline: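 Plasma levels were measured by HPLC with UV detection after acetonitrile precipitation, using extracted standards, in blood taken up to 4 h (0.5, 1, 2, 4 h) post-dose. Dosing: 50 mg/kg orally or intraperitoneally to two groups of four female B6 mice, vehicle PEG 400:acidified H2O 30:70 suspension.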

PDGFRβ = molecular target: T1, PDGFRβ (Homo sapiens, UniProt P09619); test: PAE-PDGFRβ phosphorylation in PAE-PDGFRB cells assay; assay type: cell-based; conditions: PAE cells overexpressing human PDGFRβ, PDGF-BB stimulated; read-out: PAE PDGFR autophos IC50
T1 construct: expressed in transfected cells; host or cells: porcine aorta endothelial (PAE) cells
T1 sequence (P09619 33-1106): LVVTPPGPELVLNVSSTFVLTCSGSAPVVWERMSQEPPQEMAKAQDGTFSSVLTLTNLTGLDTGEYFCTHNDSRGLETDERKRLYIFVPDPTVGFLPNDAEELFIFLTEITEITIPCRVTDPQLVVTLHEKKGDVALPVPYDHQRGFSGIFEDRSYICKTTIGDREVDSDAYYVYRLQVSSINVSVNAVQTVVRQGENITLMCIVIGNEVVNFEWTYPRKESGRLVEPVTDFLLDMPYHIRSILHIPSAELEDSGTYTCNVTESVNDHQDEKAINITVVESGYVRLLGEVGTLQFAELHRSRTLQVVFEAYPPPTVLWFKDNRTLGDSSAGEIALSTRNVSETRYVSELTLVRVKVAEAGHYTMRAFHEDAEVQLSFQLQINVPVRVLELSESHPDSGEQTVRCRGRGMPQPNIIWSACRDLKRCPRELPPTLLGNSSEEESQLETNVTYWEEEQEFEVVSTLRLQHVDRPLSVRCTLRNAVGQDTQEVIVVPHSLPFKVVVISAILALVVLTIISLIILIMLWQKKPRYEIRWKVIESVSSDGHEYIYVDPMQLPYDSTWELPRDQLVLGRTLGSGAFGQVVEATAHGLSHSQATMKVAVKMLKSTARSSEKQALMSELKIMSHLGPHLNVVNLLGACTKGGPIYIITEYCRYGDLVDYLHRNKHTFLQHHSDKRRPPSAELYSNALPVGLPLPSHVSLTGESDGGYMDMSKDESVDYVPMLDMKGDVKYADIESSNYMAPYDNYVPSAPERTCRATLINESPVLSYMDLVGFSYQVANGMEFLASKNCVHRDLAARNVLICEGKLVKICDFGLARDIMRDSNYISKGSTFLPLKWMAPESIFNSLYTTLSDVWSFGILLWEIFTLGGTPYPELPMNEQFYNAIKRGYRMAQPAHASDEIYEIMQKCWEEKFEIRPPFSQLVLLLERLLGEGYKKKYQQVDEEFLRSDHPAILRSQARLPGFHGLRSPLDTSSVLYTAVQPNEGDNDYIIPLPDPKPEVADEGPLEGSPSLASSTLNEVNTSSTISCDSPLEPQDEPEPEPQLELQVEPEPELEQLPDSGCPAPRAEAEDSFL
Outline: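 PAE cells overexpressing human PDGFRβ, serum-starved 16 h (0.1% FBS), compound 1 h at 37° C (0.5% DMSO), then 1 μg/mL PDGF-BB with 2 mM Na3VO4 for 8 min. Receptor captured by anti-PDGFRβ, phosphotyrosine detected by HRP-PY20/TMB at 450 nm; IC50 by four-parameter fit.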

Row | Structure (SMILES) | AUC (Mouse PK assay) [ng·h/mL] | Cmax (Mouse PK assay) [ng/mL] | Mouse Cmin, po (Mouse PK assay) [ng/mL] | IC50 (PDGFRβ)
1 | Cc1cc2cc(Nc3ccnc4cc(C(=O)N5CC[C@H](O)C5)sc34)ccc2n1C(=O)NC1CC1 [Example 1k, 5-[2-(3S-Hydroxy-pyrrolidine-1-carbonyl)-thieno[3,2-b]pyridin-7-ylamino]-2-methyl-indole-1-carboxylic acid cyclopropylamide] | 18 | 8 | 0 | > 1000 nM
2 | CNC(=O)n1c(C)cc2cc(Nc3ccnc4cc(C(=O)N5CCC[C@H]5COC)sc34)ccc21 [Example 1t, 5-(2-[(S)-2-(methoxymethyl)pyrrolidine-1-carbonyl]thieno[3,2-b]pyridin-7-ylamino)-2-methylindole-1-carboxylic acid methylamide] | 5860 | 4650 | 4 | 116 nM and > 100 nM and 97 nM
3 | CNC(=O)n1c(C)cc2cc(Nc3ccnc4cc(-c5nccn5C)sc34)ccc21 [Example 2a, 5-(2-[1-methyl-1H-imidazol-2-yl]thieno[3,2-b]pyridin-7-ylamino)-2-methylindole-1-carboxylic acid methylamide] | 1170 | 1010 | 19 | 57 nM and 96 nM and 61 nM and 41 nM
4 | CNC(=O)n1c(C)cc2cc(Nc3ccnc4cc(C(=O)N5CCC[C@H]5CO)sc34)ccc21 [Example 2b, 5-(2-[(S)-2-(hydroxymethyl)pyrrolidine-1-carbonyl]thieno[3,2-b]pyridin-7-ylamino)-2-methylindole-1-carboxylic acid methylamide] | 2800 | 1900 | 10 | 856 nM and > 100 nM and 616 nM and 556 nM and 657 nM and 682 nM

Second part, the compound after the results:

Row | AUC (Mouse PK assay) [ng·h/mL] | Cmax (Mouse PK assay) [ng/mL] | Mouse Cmin, po (Mouse PK assay) [ng/mL] | IC50 (PDGFRβ) | Structure (SMILES)
5 | 18800 | 11100 | 252 | 142 nM and 125 nM | Cc1cc2cc(Nc3ccnc4cc(-c5nc(C(C)(C)O)cs5)sc34)ccc2n1C(=O)NC1CC1 [Example 3b, 5-{2-[4-(1-Hydroxy-1-methyl-ethyl)-thiazol-2-yl]-thieno[3,2-b]pyridin-7-ylamino}-2-methyl-indole-1-carboxylic acid cyclopropylamide]
6 | 3640 | 2110 | 108 | 22 nM and 24 nM and 23 nM | COC[C@@H]1CCCN1C(=O)c1cc2nccc(Oc3ccc4c(c3)cc(C)n4C(=O)NC3CC3)c2s1 [Example 4b, 5-(2-[(S)-2-(methoxymethyl)pyrrolidine-1-carbonyl]thieno[3,2-b]pyridin-7-yloxy)-2-methylindole-1-carboxylic acid cyclopropylamide]
7 | 8310 | 2760 | 313 | 16 nM and 18 nM and 15 nM | C#CCNC(=O)n1c(C)cc2cc(Oc3ccnc4cc(C(=O)N5CCC[C@H]5COC)sc34)ccc21 [Example 4c, 5-(2-[(S)-2-(methoxymethyl)pyrrolidine-1-carbonyl]thieno[3,2-b]pyridin-7-yloxy)-2-methylindole-1-carboxylic acid prop-2-ynylamide]
8 | 4060 | 1960 | 54 | 76 nM and 71 nM and 64 nM | COC[C@@H]1CCCN1C(=O)c1cc2nccc(Oc3ccc4c(c3)cc(C)n4C(=O)NCC#CCO)c2s1 [Example 4d, 5-(2-[(S)-2-(methoxymethyl)pyrrolidine-1-carbonyl]thieno[3,2-b]pyridin-7-yloxy)-2-methylindole-1-carboxylic acid (4-hydroxybut-2-ynyl)amide]
9 | 1960 | 1100 | 19 | 14.1 nM | C#CCNC(=O)n1c(C)cc2c(F)c(Oc3ccnc4cc(C(=O)N5CCC[C@H]5CO)sc34)ccc21 [Example 5e, 4-Fluoro-5-[2-(2S-hydroxymethyl-pyrrolidine-1-carbonyl)-thieno[3,2-b]pyridin-7-yloxy]-2-methyl-indole-1-carboxylic acid prop-2-ynylamide]
